What is called viability is a read-out of living cells in per cent, often relative to untreated cells.

This data set can be described thus: in vitro. Particulars: human, hela cells, % viability.
With `Cc1cn([C@H]2C[C@@H](O)[C@@H](CO)O2)c(=O)nc1-n1cncn1` [CBK201235], the viability at 28.5 h, 10 µM turned out to be 82.9%. The figure for `CCCc1nc(-c2ccc3c(c2)CCCN3S(C)(=O)=O)cs1` [CBK306253] is 93%. Then `CC(C)(CSc1ccccn1)NS(=O)(=O)c1ccccc1` [CBK268513], with 102%; and `O=C(CC1CC2CCC1C2)N1CCC(O)(c2ccccn2)CC1` (stereo not shown) [CBK283833], with 92.7%; and `O=S(=O)(/C=C/c1ccccc1)Nc1cccc2[nH]ccc12` [CBK155772], with 103%. The figure for `C[C@H](c1ccccc1)n1c(=O)[nH]c2ncc(-c3ccco3)nc21` [CBK064415] is 98.1%. For the compound `Cc1cccc(Nc2ncc(Cc3ccccc3C)s2)n1` [CBK287849], the viability at 28.5 h, 10 µM is 94.8%. The figure for `Cn1cnc(C(=O)N2CC[C@H]3NC(=O)c4ccccc4OCCCCC[C@H]3C2)c1` [CBK292031] is 88.9%; for `Clc1ccc(CSc2cccs2)cn1` [CBK002639] it is 95.5%.

Regarding `COCc1cc(=O)oc2cc(NS(C)(=O)=O)ccc12` [CBK008516], the viability at 28.5 h, 10 µM amounted to 119%. The figure for `O=C(Cn1ccc(=O)[nH]c1=O)NCc1ccc(OCC(F)(F)F)cc1` [CBK305041] is 109%.

Regarding `CC1(C)CN(c2ccc(S(N)(=O)=O)cc2)C1=O` [CBK020416], the viability at 28.5 h, 10 µM is 90.6%. The figure for `COc1ccc(-n2c(C)c(C#N)c3cc(Br)c(O)c(Br)c32)cc1` [CBK101113] is 91.6%; for `CC(C)(C)c1cn(C[C@H]2CC3CCN2C[C@@H]3C(=O)Nc2nccs2)nn1` (stereo partly shown) [CBK288737] it is 87%; for `Clc1ccccc1CSc1nc[nH]n1` [CBK026950] it is 98.5%. The figure for `Cc1csc(Sc2cc(N3CCCC3)ncn2)n1` [CBK093745] is 100%; for `CCCC/C=C/c1cncc(N2CCN(c3ccccc3C#N)CC2)n1` [CBK037369] it is 93.6%. The figure for `CN1CCN(c2nc(NS(=O)(=O)c3ccc(C#N)cc3)cc3ccccc23)CC1` [CBK002977C] is 94.8%; for `Cc1nc(-c2ccccc2)cc([C@H]2CN3CC[C@H]2C[C@@H]3CNC(=O)NC(C)C)n1` [CBK289126] it is 89.9%.

In the case of `COc1ccc(Cn2c(=O)n(S(=O)(=O)c3ccc(C)cc3)c3ccccc32)cc1` [CBK106550], the viability at 28.5 h, 10 µM was 95.1%.

`Nc1ncc(-c2ccc(Cl)cc2)nc1-c1ccc(N2CCOCC2)cc1` [CBK063953]: the viability at 28.5 h, 10 µM was found to be 111%. On to `COc1ccc(NCc2cc3sccc3n2C)cc1OC` [CBK283486], for which the viability at 28.5 h, 10 µM turned out to be 87%.

For the compound `CC(=O)Nc1nnc(-c2ccc(Cl)cc2)s1` [CBK287331], the viability at 28.5 h, 10 µM stood at 94.4%.

Consider `CCn1c(SCc2nc(-c3cccs3)no2)nnc1-c1c[nH]c2ccccc12` [CBK268607], for which the viability at 28.5 h, 10 µM turned out to be 104%. The figure for `O=C1COc2ccccc2C/C=C/C[C@H]2CN(C(=O)CN3CCN(CCO)CC3)CC[C@H]2N1` [CBK292146] is 110%; for `CC(=O)NS(=O)(=O)c1ccc(NC(=O)/C=C/c2cccc([N+](=O)[O-])c2)cc1` [CBK300492] it is 88.6%. The figure for `CC1CCN(S(=O)(=O)c2cc(S(=O)(=O)N3CCC(C)CC3)c3cccc4c3c2NC4=O)CC1` [CBK263716] is 91.2%; for `FC(F)(F)c1cccc(OCCOc2ccccc2)n1` [CBK115835] it is 87.7%. Then `Cc1c(C(=O)O)cccc1N1C(=O)c2ccc([N+](=O)[O-])cc2C1=O` [CBK262724], with 99.9%; and `CCOc1ccccc1-c1nnc(SCC(=O)NC2CCCCC2)o1` [CBK268728], with 106%; and `Cn1c(CN2CCN(C(=O)c3ccco3)CC2)nc2cc([N+](=O)[O-])ccc21` [CBK268473], with 108%.

Source of the values: paper PMC12040169 (PLOS Biology, 2025).
